Reference: the supplement of paper PMC10307832

Assays:
Assay in all cases: relative viability (nuclei count vs DMSO), 5 days (fraction); higher = more cells survive
OSI-027 + Pemetrexed = compound: COc1cccc2cc(-c3nc([C@H]4CC[C@H](C(=O)O)CC4)n4ncnc(N)c34)[nH]c12 [OSI-027] + Nc1nc2[nH]cc(CCc3ccc(C(=O)N[C@@H](CCC(=O)O)C(=O)O)cc3)c2c(=O)[nH]1 [Pemetrexed] (partner 0.2 µM)
Method in brief: (§1)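 Nuclei were stained with Hoechst during a one-step fixation (final 0.05% Triton X-100, 1% formaldehyde, 1 ug/ml Hoechst) carried out 5 days after dosing, then counted on 4× images. The cells, lung cancer lines in 1536-well plates, had been dosed by pin tool the day after seeding with one drug alone or a fixed anchor-drug dose plus five library-drug doses (not always all listed) in √10 steps. Relative viability is the nuclei count in treated wells divided by that in vehicle wells, and each value is the median of duplicate plates.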

Alpelisib + Foretinib = compound: Cc1nc(NC(=O)N2CCC[C@H]2C(N)=O)sc1-c1ccnc(C(C)(C)C(F)(F)F)c1 [Alpelisib] + COc1cc2c(Oc3ccc(NC(=O)C4(C(=O)Nc5ccc(F)cc5)CC4)cc3F)ccnc2cc1OCCCN1CCOCC1 [Foretinib] (partner 0.25 µM)
Method in brief: as §1

Alpelisib + Trametinib = compound: Cc1nc(NC(=O)N2CCC[C@H]2C(N)=O)sc1-c1ccnc(C(C)(C)C(F)(F)F)c1 [Alpelisib] + CC(=O)Nc1cccc(-n2c(=O)n(C3CC3)c(=O)c3c(Nc4ccc(I)cc4F)n(C)c(=O)c(C)c32)c1 [Trametinib] (partner 0.02 µM)
Method in brief: as §1

Vemurafenib + OSI-027 = compound: CCCS(=O)(=O)Nc1ccc(F)c(C(=O)c2c[nH]c3ncc(-c4ccc(Cl)cc4)cc23)c1F [Vemurafenib] + COc1cccc2cc(-c3nc([C@H]4CC[C@H](C(=O)O)CC4)n4ncnc(N)c34)[nH]c12 [OSI-027] (partner 0.5 µM)
Method in brief: as §1

Cell Line	relative viability (OSI-027 + Pemetrexed; first compound 0.01 µM)	relative viability (OSI-027 + Pemetrexed; first compound 0.03162 µM)	relative viability (OSI-027 + Pemetrexed; first compound 0.1 µM)	relative viability (OSI-027 + Pemetrexed; first compound 0.3162 µM)	relative viability (OSI-027 + Pemetrexed; first compound 1 µM)	relative viability (Alpelisib + Foretinib; first compound 0.04 µM)	relative viability (Alpelisib + Foretinib; first compound 0.1265 µM)	relative viability (Alpelisib + Foretinib; first compound 0.4 µM)	relative viability (Alpelisib + Foretinib; first compound 1.265 µM)	relative viability (Alpelisib + Foretinib; first compound 4 µM)	relative viability (Alpelisib + Trametinib; first compound 0.04 µM)	relative viability (Alpelisib + Trametinib; first compound 0.1265 µM)	relative viability (Alpelisib + Trametinib; first compound 0.4 µM)	relative viability (Alpelisib + Trametinib; first compound 1.265 µM)	relative viability (Alpelisib + Trametinib; first compound 4 µM)	relative viability (Vemurafenib + OSI-027; first compound 0.03162 µM)	relative viability (Vemurafenib + OSI-027; first compound 0.1 µM)	relative viability (Vemurafenib + OSI-027; first compound 0.3162 µM)	relative viability (Vemurafenib + OSI-027; first compound 1 µM)
LU99A	0.181	0.362	0.173	0.239	0.159	0.746	0.832	0.722	0.661	0.503	0.573	0.558	0.599	0.425	0.386	0.325	0.28	0.244	0.287
LXF-289	0.939	0.841	1.04	0.974	0.837	0.951	1	1.08	0.909	0.764	0.632	0.632	0.71	0.609	0.694	0.758	0.668	0.622	0.772
NCI-H23	0.617	0.757	0.598	0.47	0.395	0.859	0.935	0.977	0.743	0.621	0.287	0.354	0.252	0.286	0.233	0.566	0.543	0.547	0.349
NCI-H322M	0.602	0.608	0.633	0.556	0.519	0.909	0.867	0.927	0.619	0.678	0.516	0.497	0.49	0.367	0.411	0.461	–	–	0.475
NCI-H358	0.185	0.171	0.176	0.132	0.151	0.622	0.674	0.684	0.567	0.353	0.138	0.118	0.128	0.11	0.1	0.7	0.47	0.928	0.882
NCI-H441	0.259	0.213	0.285	0.255	0.251	0.891	0.844	0.786	0.724	0.566	0.472	0.383	0.388	0.247	0.263	0.57	0.476	0.584	0.418
NCI-H460	0.0613	0.0659	0.0561	0.0523	0.0728	0.998	1.02	1.08	0.929	0.795	0.093	0.161	0.155	0.0725	0.0881	0.549	0.623	0.456	0.473
NCI-H520	0.785	0.645	0.596	0.487	0.263	0.682	0.928	0.838	0.605	0.582	0.62	0.574	0.549	0.491	0.429	0.236	0.282	0.327	0.214
NCI-H596	0.436	0.576	0.463	0.475	0.504	0.769	0.677	0.731	0.457	0.431	0.801	0.815	0.708	0.48	0.44	0.686	0.723	0.577	0.492
NCI-H647	0.159	0.173	0.187	0.157	0.211	1.12	1.14	1.33	0.837	1.24	0.44	0.473	0.523	0.348	0.481	0.636	0.629	0.477	0.564
NCI-H650	0.878	1.03	0.836	0.671	0.367	1.03	0.988	1.01	0.839	0.822	0.996	0.921	0.962	0.749	0.774	0.459	0.473	–	0.421
NCI-H661	0.886	0.941	0.934	0.882	0.631	1.02	1.05	1.08	1.02	0.92	0.618	0.593	0.645	0.52	0.462	0.673	0.559	0.658	0.688
NCI-H838	0.245	0.255	0.249	0.234	0.214	0.94	0.961	1.01	0.892	0.871	0.419	0.483	0.515	0.405	0.421	0.367	0.404	–	0.436
NCI-H1355	1.07	1.06	1	0.777	0.572	0.951	0.926	1.04	0.851	0.77	0.397	0.421	0.386	0.356	0.292	0.41	0.341	0.386	0.351
NCI-H1395	0.736	0.826	0.643	0.74	0.74	0.889	1.04	1.01	0.897	0.988	1.07	1	1.13	0.817	0.878	0.606	0.651	–	0.659
NCI-H1437	0.357	0.348	0.26	0.259	0.24	1.23	1.33	1.33	1.27	1.31	0.434	0.492	0.539	0.382	0.304	0.857	0.85	0.855	0.875
NCI-H1650	0.404	0.361	0.369	0.405	0.475	1.09	1.1	1.35	0.867	1.15	0.688	0.487	0.638	0.505	0.544	–	0.448	–	0.537

Cell Line	relative viability (OSI-027 + Pemetrexed; first compound 0.01 µM)	relative viability (OSI-027 + Pemetrexed; first compound 0.03162 µM)	relative viability (OSI-027 + Pemetrexed; first compound 0.1 µM)	relative viability (OSI-027 + Pemetrexed; first compound 0.3162 µM)	relative viability (OSI-027 + Pemetrexed; first compound 1 µM)	relative viability (Alpelisib + Foretinib; first compound 0.04 µM)	relative viability (Alpelisib + Foretinib; first compound 0.1265 µM)	relative viability (Alpelisib + Foretinib; first compound 0.4 µM)	relative viability (Alpelisib + Foretinib; first compound 1.265 µM)	relative viability (Alpelisib + Foretinib; first compound 4 µM)	relative viability (Alpelisib + Trametinib; first compound 0.04 µM)	relative viability (Alpelisib + Trametinib; first compound 0.1265 µM)	relative viability (Alpelisib + Trametinib; first compound 0.4 µM)	relative viability (Alpelisib + Trametinib; first compound 1.265 µM)	relative viability (Alpelisib + Trametinib; first compound 4 µM)	relative viability (Vemurafenib + OSI-027; first compound 0.03162 µM)	relative viability (Vemurafenib + OSI-027; first compound 0.1 µM)	relative viability (Vemurafenib + OSI-027; first compound 0.3162 µM)	relative viability (Vemurafenib + OSI-027; first compound 1 µM)
NCI-H1651	0.54	0.575	0.532	0.57	0.523	0.683	0.853	0.791	0.571	0.741	0.752	0.828	0.807	0.759	0.561	0.733	0.725	0.698	0.829
NCI-H1666	0.853	0.905	0.832	0.831	0.787	1	1.02	1.05	0.801	0.74	0.799	0.841	0.903	0.784	0.71	0.845	0.802	0.98	0.929
NCI-H1734	0.416	0.436	0.371	0.412	0.386	0.749	–	0.786	0.486	0.356	0.566	0.626	0.624	0.533	0.394	0.583	0.568	0.49	0.507
NCI-H1755	0.5	0.417	0.454	0.655	0.439	0.95	0.924	0.962	0.785	0.731	0.852	0.726	0.718	0.72	0.668	0.696	0.687	0.586	0.632
NCI-H1793	0.795	0.866	0.468	0.391	0.209	0.733	0.666	0.77	0.402	0.42	0.424	0.289	0.536	0.406	0.39	0.274	–	0.316	0.3
NCI-H1915	0.546	0.516	0.47	0.449	0.536	1.12	1.1	1.15	1.03	1.09	0.307	0.304	0.312	0.285	0.26	0.585	0.639	0.471	0.533
NCI-H1944	0.657	0.691	0.77	0.59	0.519	0.786	0.96	0.881	0.581	0.43	0.354	0.425	0.4	0.313	0.275	0.395	0.285	0.336	0.352
NCI-H1975	0.336	0.275	0.292	0.303	0.259	0.915	0.872	0.883	0.691	0.57	0.364	0.315	0.317	0.258	0.177	0.647	0.631	0.4	0.564
NCI-H1993	0.533	0.41	0.522	0.465	0.45	0.737	0.697	0.771	0.544	0.55	0.539	0.477	0.5	0.483	0.49	0.523	–	0.607	0.494
NCI-H2009	1.15	1.05	1.04	0.998	0.687	1.23	1.2	1.25	1.1	1.1	0.264	0.276	0.28	0.285	0.224	0.606	0.483	0.389	0.325
NCI-H2023	0.254	0.242	0.201	0.173	0.121	0.82	0.844	0.667	0.605	0.527	0.532	0.452	0.538	0.287	0.208	0.316	0.293	0.408	0.316
NCI-H2085	0.776	0.879	0.797	0.841	0.795	0.93	0.845	1.05	1.07	0.833	0.57	0.468	0.496	0.495	0.338	0.645	0.37	0.663	0.637
NCI-H2087	0.696	0.674	0.694	0.533	0.338	0.903	1.07	1.31	0.814	0.614	0.183	0.174	0.195	0.163	0.164	0.481	0.565	–	0.514
NCI-H2126	0.677	0.676	0.663	0.688	0.512	1.05	1.01	1.04	1.07	0.904	0.545	0.504	0.526	0.416	0.381	0.606	0.591	0.856	0.651
NCI-H2170	0.26	0.263	0.289	0.325	0.305	0.978	0.914	1.12	0.922	0.622	0.91	0.857	0.921	0.666	0.549	0.67	0.194	0.686	0.7
NCI-H2228	0.43	0.348	0.322	0.327	0.208	0.82	0.927	0.701	0.613	0.404	0.415	0.536	0.399	0.314	0.123	0.548	0.634	0.634	0.474
